Test results reported in ChEMBL document CHEMBL1201862, “PubChem BioAssay data set” (2004).
Active and inactive are the calls of the source.

What was measured:
[1] = biological target: T1, Ubiquitin-conjugating enzyme E2 N (Homo sapiens, UniProt P61088); format: functional;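 also: Dose-response confirmation in a TR-FRET assay detecting UBC13-driven polyubiquitin chain formation, inhibition measured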
T1 sequence (P61088 whole entry): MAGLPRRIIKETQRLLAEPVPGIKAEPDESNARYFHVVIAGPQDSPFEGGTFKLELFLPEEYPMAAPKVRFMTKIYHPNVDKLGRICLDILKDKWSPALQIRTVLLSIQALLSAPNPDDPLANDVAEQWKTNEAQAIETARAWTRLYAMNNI

[2] = biological target: T2, Zinc finger protein mex-5 (Caenorhabditis elegans, UniProt Q9XUB2); experiment: MEX-5/TCR-2 RNA interaction inhibitors, dose response, biochemical, C. elegans, fluorescence polarization (AID 1960)
T2 sequence (Q9XUB2 whole entry): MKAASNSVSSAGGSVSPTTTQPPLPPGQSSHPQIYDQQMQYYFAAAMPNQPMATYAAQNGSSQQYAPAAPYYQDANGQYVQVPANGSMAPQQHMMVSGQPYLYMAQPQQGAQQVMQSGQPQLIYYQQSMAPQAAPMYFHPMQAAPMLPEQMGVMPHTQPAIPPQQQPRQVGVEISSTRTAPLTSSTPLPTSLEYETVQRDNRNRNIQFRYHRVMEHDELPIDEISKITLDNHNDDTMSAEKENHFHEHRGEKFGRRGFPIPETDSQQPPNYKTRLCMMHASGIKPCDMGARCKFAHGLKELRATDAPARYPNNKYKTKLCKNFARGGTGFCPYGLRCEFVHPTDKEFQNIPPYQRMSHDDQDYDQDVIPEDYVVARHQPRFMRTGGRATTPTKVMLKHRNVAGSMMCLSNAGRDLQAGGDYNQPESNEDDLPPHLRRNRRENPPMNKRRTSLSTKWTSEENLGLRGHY

[3] = biological target: T3, RNA-binding protein pos-1 (Caenorhabditis elegans, UniProt G5EF15); experiment: inhibitors of POS-1/mex-3 RNA binding, dose response, biochemical, fluorescence polarization (AID 1964);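 also: purified POS-1 fused to maltose binding protein made in E. coli; potency of compounds blocking POS-1 binding to fluorescent RNA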
T3 sequence (G5EF15 whole entry): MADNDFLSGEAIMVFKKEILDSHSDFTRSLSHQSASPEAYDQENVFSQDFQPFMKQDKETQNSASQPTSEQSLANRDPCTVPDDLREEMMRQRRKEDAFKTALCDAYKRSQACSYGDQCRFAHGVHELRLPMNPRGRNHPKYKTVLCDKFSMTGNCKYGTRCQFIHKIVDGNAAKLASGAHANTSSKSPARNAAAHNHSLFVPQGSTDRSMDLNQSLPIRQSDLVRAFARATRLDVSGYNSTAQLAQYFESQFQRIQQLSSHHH

Cytochrome P450 3A4 = Cytochrome P450 3A4 (Homo sapiens, UniProt P08684); settings: Potency;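 also: confirmatory qHTS run detecting inhibitors and substrates of CYP3A4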
Chain of Cytochrome P450 3A4 (P08684 whole entry): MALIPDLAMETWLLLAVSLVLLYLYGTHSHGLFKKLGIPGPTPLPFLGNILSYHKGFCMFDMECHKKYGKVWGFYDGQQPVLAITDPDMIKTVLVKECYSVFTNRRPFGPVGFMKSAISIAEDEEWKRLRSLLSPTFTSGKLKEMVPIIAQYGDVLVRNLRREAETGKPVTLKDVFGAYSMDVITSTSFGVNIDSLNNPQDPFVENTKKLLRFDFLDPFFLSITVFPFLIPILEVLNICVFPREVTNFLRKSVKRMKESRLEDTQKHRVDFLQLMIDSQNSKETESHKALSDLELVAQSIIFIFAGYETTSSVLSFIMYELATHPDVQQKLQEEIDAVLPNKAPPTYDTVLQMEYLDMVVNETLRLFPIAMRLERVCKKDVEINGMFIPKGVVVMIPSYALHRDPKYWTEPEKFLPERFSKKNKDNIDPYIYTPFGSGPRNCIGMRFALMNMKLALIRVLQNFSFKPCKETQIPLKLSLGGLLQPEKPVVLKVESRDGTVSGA

cells = format: functional
[4] = biological target: T4, Calpain-2 catalytic subunit (Sus scrofa, UniProt P43367); experiment: pig calpain II inhibitor potency, dose response, biochemical, fluorogenic peptide substrate (AID 1420); format: functional
T4 sequence (P43367 whole entry): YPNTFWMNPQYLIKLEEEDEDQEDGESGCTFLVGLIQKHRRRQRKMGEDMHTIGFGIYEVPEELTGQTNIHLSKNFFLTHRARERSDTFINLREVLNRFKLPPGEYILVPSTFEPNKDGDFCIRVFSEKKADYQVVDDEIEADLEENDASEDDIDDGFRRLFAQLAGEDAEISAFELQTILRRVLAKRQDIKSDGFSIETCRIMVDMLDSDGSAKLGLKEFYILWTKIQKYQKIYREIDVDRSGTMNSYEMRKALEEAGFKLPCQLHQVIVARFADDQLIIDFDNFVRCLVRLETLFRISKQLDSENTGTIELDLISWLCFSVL

[5] = P. falciparum Dd2 growth inhibitors, dose response, SYBR Green, cherry-picked samples (AID 1159567); format: functional, cell-based
Cytochrome P450 2C19 = Cytochrome P450 2C19 (Homo sapiens, UniProt P33261); experiment: Cytochrome panel assay with activity outcomes. Panel member name: p450-cyp2c19 Compounds with AC50 equal or less than 10 uM are considered active; format: functional; settings: read-out: AC50
Chain of Cytochrome P450 2C19 (P33261 whole entry, the tested form may be a part): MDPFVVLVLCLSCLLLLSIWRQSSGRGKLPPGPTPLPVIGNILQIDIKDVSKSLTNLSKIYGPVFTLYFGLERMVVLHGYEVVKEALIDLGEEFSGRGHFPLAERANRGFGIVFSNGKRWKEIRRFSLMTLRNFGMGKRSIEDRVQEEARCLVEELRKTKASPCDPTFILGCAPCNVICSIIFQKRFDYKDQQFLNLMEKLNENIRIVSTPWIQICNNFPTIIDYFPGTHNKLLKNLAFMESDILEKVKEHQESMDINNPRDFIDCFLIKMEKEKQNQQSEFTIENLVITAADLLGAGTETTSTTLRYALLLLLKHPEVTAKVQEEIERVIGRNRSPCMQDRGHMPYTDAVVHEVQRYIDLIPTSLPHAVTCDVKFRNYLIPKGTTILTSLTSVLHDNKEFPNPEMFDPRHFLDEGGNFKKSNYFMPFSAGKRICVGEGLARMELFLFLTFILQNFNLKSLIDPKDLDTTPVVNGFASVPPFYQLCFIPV

[6] = inhibitors of clade B AD8 Env fusion, dose response, cell-based, cherry-pick (AID 652062); format: functional;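 also: luciferase signal from cell-cell fusion driven by HIV-1 clade B AD8 Env; potency is for inhibitors of fusion seen as a drop in luminescence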
Cytochrome P450 2D6 = Cytochrome P450 2D6 (Homo sapiens, UniProt P10635);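 also: CYP2D6 member of a cytochrome P450 panel assay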
Chain of Cytochrome P450 2D6 (P10635 whole entry): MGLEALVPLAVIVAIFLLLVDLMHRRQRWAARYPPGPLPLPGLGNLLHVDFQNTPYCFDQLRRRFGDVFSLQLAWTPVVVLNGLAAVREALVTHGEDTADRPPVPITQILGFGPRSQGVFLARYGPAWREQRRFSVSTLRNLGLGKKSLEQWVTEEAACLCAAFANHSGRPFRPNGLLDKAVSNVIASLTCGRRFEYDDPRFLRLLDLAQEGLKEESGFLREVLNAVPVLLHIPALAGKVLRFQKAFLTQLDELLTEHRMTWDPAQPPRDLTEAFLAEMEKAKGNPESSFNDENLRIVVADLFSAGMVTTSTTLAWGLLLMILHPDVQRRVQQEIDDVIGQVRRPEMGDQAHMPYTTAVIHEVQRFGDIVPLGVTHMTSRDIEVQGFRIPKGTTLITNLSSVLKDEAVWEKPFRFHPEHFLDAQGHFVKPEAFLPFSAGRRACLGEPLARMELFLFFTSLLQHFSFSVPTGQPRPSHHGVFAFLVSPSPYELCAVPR

[7] = THP-1 cell cytotoxicity, dose response, cytotoxicity control for non-replicating M. tuberculosis project (AID 489025); format: functional
Streptokinase A = biological target: T5, Streptokinase A (Streptococcus pyogenes serotype M1, UniProt P10520); experiment: S. pyogenes streptokinase expression inhibitors, potency, dose response, plasminogen activation absorbance, OD405 (AID 1914); format: functional, Streptococcus pyogenes M1 GAS;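 also: secreted streptokinase activity via plasminogen activation per viability signal from cell pellet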
T5 sequence (P10520 whole entry): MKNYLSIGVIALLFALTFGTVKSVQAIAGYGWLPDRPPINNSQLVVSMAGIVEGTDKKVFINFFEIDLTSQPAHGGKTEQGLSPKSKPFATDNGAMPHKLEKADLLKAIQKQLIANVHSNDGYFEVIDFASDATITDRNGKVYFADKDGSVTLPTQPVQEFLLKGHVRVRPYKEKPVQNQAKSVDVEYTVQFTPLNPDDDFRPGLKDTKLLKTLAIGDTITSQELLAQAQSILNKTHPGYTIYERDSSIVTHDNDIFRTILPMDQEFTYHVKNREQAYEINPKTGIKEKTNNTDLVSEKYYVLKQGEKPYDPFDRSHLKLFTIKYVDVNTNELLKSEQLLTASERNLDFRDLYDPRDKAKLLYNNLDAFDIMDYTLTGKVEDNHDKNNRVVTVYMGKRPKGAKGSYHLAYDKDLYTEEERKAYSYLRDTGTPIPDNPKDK

Streptococcus = experiment: Group A Streptococcus viability loss, dose response, counter-screen for streptokinase expression inhibitor project, luminescence, BacTiterGlo (AID 1915); format: functional, organism-based;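 also: potency for reduction of bacterial viability or growth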
[8] = test system: Streptococcus sp. 'group A'; experiment: growth inhibition of control SK(-) GAS strain, dose response, counter-screen for streptokinase expression inhibitor project, luminescence, kanamycin, BacTiterGlo, confirmation (AID 1900); format: functional, organism-based
[9] = cytotoxicity toward NIH3T3 fibroblasts, dose response, counter-screen, cell-based, ATP luminescence, mouse fibroblasts (AID 2010); format: functional;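 also: cells exposed to compound for about 90 hours before reading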
[10] = inhibitors of intracellular T. cruzi replication, confirmation, NIH3T3 host cells, beta-gal luminescence (AID 2044); format: functional, cell-based;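 also: intracellular parasites grown in NIH/3T3 mouse fibroblasts as host cells; luminescent beta-galactosidase reporter signal from transgenic T. cruzi replicating inside host cells; inhibitors lower the luminescence signal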

O=c1cc(CO)oc(C(Nc2cccc([N+](=O)[O-])c2)c2ccccn2)c1O (configuration not stated)
IC50 [1]: > 20 µM (inactive)

O=C(C1=C(O)C(=O)N(c2ncccn2)C1c1cccs1)c1ccco1 (configuration not stated)
EC50 [2]: 31.5 µM (active) | EC50 [3]: 39.9 µM (active)

COC1=CC(=O)C(O)=C/C1=C\C=C\c1ccccc1 [OBTUSAQUINONE]
AC50 (Cytochrome P450 3A4): 25.1 µM (inconclusive)

COc1ccc(COc2cccc(C=O)c2)cc1
IC50 (cells): 30.9 µM (active)

O=C(NCc1cccnc1)c1ccccc1CCc1ccccc1
IC50 [4]: 18.8 µM (not active)

CCCCNc1nc(C)nc2c1nc(-c1ccccc1)n2CCCN(CC)CC
AC50 (Cytochrome P450 3A4): 25.1 µM (inconclusive)

CCC(C)[C@@H](N)C(=O)N/N=C/c1cccc2nccnc12 (some centres not stated)
EC50 [2]: > 300 µM (not active) | EC50 [3]: > 300 µM (not active)

C[C@@H]1CC2(OC3C[C@@]4(C)C5=CC[C@H]6C(C)(C)C(O[C@@H]7OC[C@@H](O)[C@H](O)[C@H]7O)CC[C@@]67C[C@@]57CC[C@]4(C)C31)OC(O)C1(C)OC21 (some centres not stated)
AC50 (Cytochrome P450 3A4): 5.01 µM (inconclusive)

N#Cc1ccc(-c2ccc([C@@H]3[C@@H]4CN(Cc5cocn5)C[C@H]3N4)cc2)cc1
AC50 [5]: 3.73 µM (active)

CC1(C)Cc2c(c(N3CCOCC3)nc3sc4c(=O)nc[nH]c4c23)CS1
IC50 [1]: > 20 µM (inactive)

COC(=O)CNC(=O)C1(C)C=CC2(CCCCC2)N1C(C)=O (configuration not stated)
AC50 (Cytochrome P450 3A4): 25.1 µM (inconclusive)

COC(=O)c1c(NC(NC(C)=O)C(Cl)(Cl)Cl)sc2c1CCCC2 (configuration not stated)
IC50 [4]: > 50 µM (not active)

CCCCOc1ccc(S(=O)(=O)Nc2cccnc2)cc1
AC50 (Cytochrome P450 2C19): 0.355 µM (inconclusive) | AC50 [6]: 7.89 µM (active) | AC50 (Cytochrome P450 2D6): 25.1 µM (inconclusive)

C=CCn1c(=O)/c(=C/c2ccc(C)o2)s/c1=C(/C#N)C(=O)c1ccccc1
EC50 [2]: > 300 µM (inconclusive)

N#CC1=C(N)OC2=C(C(=O)CCC2)C1c1ccc2c(c1)OCO2 (configuration not stated)
EC50 [2]: > 300 µM (not active) | EC50 [3]: > 300 µM (not active)

Cc1ccc(CCC(=O)Nc2ccc(C)c(C)c2)o1
IC50 (cells): 49.8 µM (active)

CC(=O)Nc1ccc2c(c1)C(=O)N(c1cccc(C)c1)C2=O
IC50 [1]: > 20 µM (inactive)

Nc1cc(Cl)c([N+](=O)[O-])cc1O
AC50 (Cytochrome P450 3A4): 31.6 µM (inconclusive)

CC1(OC(=O)c2ccc(Cl)nc2)C(=O)C=C2C=C(c3ccsc3)OC=C2C1=O (configuration not stated)
EC50 [2]: 41.9 µM (active) | EC50 [3]: 54.4 µM (active)

COC(=O)C1=C(C)N(CC2CC2)C(NCc2cccc(Cl)c2)=N[C@H]1c1ccccc1
CC50 [7]: 22.5 µM (active)

Cc1ccccc1S(=O)(=O)N1C[C@@H]2N[C@H](C1)[C@@H]2c1ccc(-c2ccc(C#N)cc2)cc1
AC50 [5]: 3.32 µM (active)

Nc1nc(NC(=O)/C=C/c2ccc(F)cc2)nn1-c1ccccc1
EC50 (Streptokinase A): > 150 µM (not active) | EC50 (Streptococcus): > 150 µM (not active) | EC50 [8]: 3.91 µM (active)

COc1ccc2c3c([nH]c2c1)[C@H](CO)N(Cc1nccs1)CC31CN(Cc2cccnc2)C1
AC50 [5]: 10.7 µM (active)

O=P(N[C@@H](c1ccccc1)[C@@H]1C[C@H]1CO)(c1ccccc1)c1ccccc1
AC50 (Cytochrome P450 3A4): 15.8 µM (inconclusive)

N#C/C(=C(/O)c1cc2ccccc2o1)c1nc2ccccc2s1
EC50 (Streptococcus): 42.4 µM (active) | EC50 [8]: 9.28 µM (active) | EC50 [2]: > 300 µM (not active) | EC50 [3]: > 300 µM (not active)

COc1ccccc1/C=N/NC(=O)c1ccc(Br)cc1
IC50 [4]: 45.9 µM (not active)

O=C(c1ccc(COc2ccc(Cl)cc2)cc1)N1CCCCC1
IC50 [4]: 10.4 µM (not active)

CCC(=O)NC(=S)NNC(=O)c1ccc(OC)cc1
IC50 [1]: > 20 µM (inactive)

CC(=O)OC1C2C(OC(=O)Cc3ccccc3)C(C)CC2(OC(C)=O)C(=O)/C(C)=C/C2C(CC[C@@]13CO3)C2(C)C (some centres not stated)
AC50 (Cytochrome P450 3A4): 3.98 µM (inconclusive)

Cc1cccc(Cn2nc(-n3cccc3)c3c(C)cc(C)nc32)c1
EC50 (Streptokinase A): 15.1 µM (active) | EC50 (Streptococcus): > 150 µM (not active) | EC50 [8]: 12 µM (active)

CCOC(=O)Cc1nc2cc(Cl)ccc2o1
IC50 (cells): 18.6 µM (active)

COc1ccc2c3c(n(C)c2c1)[C@H](CO)N(C(=O)Nc1ccc(F)cc1)CC31CN(Cc2cccnc2)C1
AC50 [5]: 3.4 µM (active)

CCN(CC)CCn1c(-c2ccccc2)nc2c(NC3CCCCC3)nc(C)nc21
AC50 (Cytochrome P450 3A4): 15.8 µM (inconclusive)

COc1ccc2c3c(n(C)c2c1)[C@H](CO)N(C(=O)c1cccc(F)c1)CC31CN(C(=O)c2cccc(F)c2)C1
AC50 [5]: 9.32 µM (active)

COc1ccc(CNc2oc(COc3ccc(Cl)cc3)nc2C#N)cc1
IC50 [4]: 4 µM (not active) | EC50 [9]: > 60 µM (not active) | EC50 [10]: 1.36 µM (active)

CCN1/C(=C/C(C)=O)Sc2ccc(OC)cc21
AC50 (Cytochrome P450 3A4): 25.1 µM (inconclusive)

Cn1nc(N)c2c(-c3ccc(Cl)cc3)c(C#N)c(N)nc21
IC50 [1]: > 20 µM (inactive)

CCCC/N=C(/C)c1c(O)oc2ccccc2c1=O
IC50 [4]: 19.7 µM (not active)

O=C(CSc1nnc(CNC(=O)c2ccccc2)o1)NCCc1ccccc1
EC50 (Streptokinase A): > 150 µM (not active) | EC50 (Streptococcus): > 150 µM (not active) | EC50 [8]: > 150 µM (not active)

COC(=O)c1cccc(NC(=O)Cc2coc3cc(OC)ccc23)c1
IC50 [1]: > 20 µM (inactive)

C=CCn1c(COc2ccccc2)nnc1SCC(=O)N/N=C/c1cc(Cl)ccc1O
EC50 (Streptokinase A): > 150 µM (not active) | EC50 (Streptococcus): 48.1 µM (active) | EC50 [8]: 4.37 µM (active)

O=C(C1CCC(=O)N1C1CCCCC1)N1CCC2(CC1)OCCO2 (configuration not stated)
IC50 [4]: 8.43 µM (not active)

COc1cc(-c2coc3cc(OCc4ccccc4)c(OC)c(O)c3c2=O)cc(O)c1OC [IRIGENIN, 7-BENZYL ETHER]
AC50 (Cytochrome P450 3A4): 15.8 µM (inconclusive)
